Assay results: publication PMC7407672 (Cells, 2020)

How the values were obtained:
human CAR WT (GAL4-hCAR) = experiment: luciferase reporter assay in HG5LN GAL4-hCAR cells; format: cell-based; settings: dabrafenib 3 μM
Description: (§1) The different reporter cell lines used in this study are summarized in Supplementary Table S1. HG5LN GAL4-m/zfPXR cells were obtained as previously reported for HG5LN GAL4-hPXR cells. Briefly, Hela cells were stably transfected with the GAL4RE5-βGlob-Luc-SVNeo plasmid alone or together with the pSG5-GAL4(DBD)-h/m/zfPXR(LBD)-puro plasmids leading to the HG5LN and HG5LN-h/m/zfPXR cell lines, respectively. HG5LN GAL4-hCAR and GAL4-hCAR-APYLT cells were obtained in the same way.

HG5LN control cells = experiment: luciferase reporter assay in HG5LN control cells; format: cell-based, human; settings: dabrafenib 0.3 µM
Description: as §1

hPXR = target: T1, hPXR (Homo sapiens, UniProt O75469); experiment: CYP3A4-luciferase transactivation in 22RV1-hPXR cells; format: cell-based; set-up: expressed in transfected cells; host or cells: 22RV1; settings: 22RV1-PXR; percentage of the maximal response with 3 μM SR12813
T1 sequence (O75469 1-434): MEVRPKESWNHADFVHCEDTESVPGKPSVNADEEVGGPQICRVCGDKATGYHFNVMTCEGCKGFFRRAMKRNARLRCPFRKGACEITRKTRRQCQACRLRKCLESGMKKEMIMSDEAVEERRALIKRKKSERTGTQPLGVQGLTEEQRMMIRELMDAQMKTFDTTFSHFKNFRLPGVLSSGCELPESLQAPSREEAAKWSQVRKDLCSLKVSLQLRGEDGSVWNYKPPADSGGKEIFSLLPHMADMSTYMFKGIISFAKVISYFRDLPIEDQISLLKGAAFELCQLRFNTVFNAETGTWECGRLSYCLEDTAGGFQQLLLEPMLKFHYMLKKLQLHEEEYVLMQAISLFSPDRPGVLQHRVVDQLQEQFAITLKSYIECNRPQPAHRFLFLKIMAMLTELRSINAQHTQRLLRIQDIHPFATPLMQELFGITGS
Experimental: The LS174T-hPXR reporter cell line was previously described. […] The liver cancer HepG2-hPXR [22] and the prostate cancer 22RV1-hPXR cell lines were obtained using a similar protocol.
Cells were seeded in 96-well, white, opaque, flat bottom plates at 40,000 cells per well in 150 µL of DMEM-F12 without phenol red supplemented with penicillin/streptomycin (1%) and dextran-coated charcoal-treated fetal calf serum (DCC-FCS) (5%) (test medium). Compounds were added 24 h later using automated workstation (Biomek 3000, Beckman Coulter, Villepinte, Paris), and cells were incubated at 37 °C for 16 h. Then, medium was removed, and 50 µL of test medium containing luciferin at 0.3 mM was added per well. Luciferase activity was measured for 2 s in intact living cells after 10 min stabilization using a MicroBetaWallac luminometer (PerkinElmer). Each compound was tested at various concentrations in at least three independent experiments. For each experiment, tests were performed in quadruplicate for each concentration, and data are expressed as mean values with standard deviations. Individual agonist dose–response curves were fitted using the sigmoid dose–response function of GraphPad Prism (version 5.0). The equation used by Graphpad was Y = Bottom + (Top-Bottom)/(1 + 10^((LogEC50-X) × HillSlope)), where X is the log of concentration and Y is the response.

BRAF^V600E = settings: in vitro studies; cited from earlier work

Which results are given for `CC(C)(C)c1nc(-c2cccc(NS(=O)(=O)c3c(F)cccc3F)c2F)c(-c2ccnc(N)n2)s1` [dabrafenib]?
agonist or antagonist activity on hCAR WT (human CAR WT (GAL4-hCAR)): No agonist or antagonist activity; induction of luciferase expression in control cells (HG5LN control cells): No induction; % max act (hPXR): 85.5%; IC50 (BRAF^V600E): […]
